Results taken from patent publication US7838498B2, “Benzylic glycoside derivatives and methods of use” (Theracos, Inc., priority 2007, dated 2010).

Key:
human SGLT2 = biological target: T1, human SGLT2 (Homo sapiens, UniProt P31639); assay: Methyl-α-D-[U-14C]glucopyranoside uptake assay, cells stably expressing human SGLT2; assay type: cell-based; settings: HEK293.ETN cells expressing human SGLT2, 1.5 h incubation, without human serum (symbols without parentheses)
T1 construct: A full-length cDNA clone expressing human SGLT2 (GenScript Corporation) was subcloned
T1 sequence (P31639 1-672): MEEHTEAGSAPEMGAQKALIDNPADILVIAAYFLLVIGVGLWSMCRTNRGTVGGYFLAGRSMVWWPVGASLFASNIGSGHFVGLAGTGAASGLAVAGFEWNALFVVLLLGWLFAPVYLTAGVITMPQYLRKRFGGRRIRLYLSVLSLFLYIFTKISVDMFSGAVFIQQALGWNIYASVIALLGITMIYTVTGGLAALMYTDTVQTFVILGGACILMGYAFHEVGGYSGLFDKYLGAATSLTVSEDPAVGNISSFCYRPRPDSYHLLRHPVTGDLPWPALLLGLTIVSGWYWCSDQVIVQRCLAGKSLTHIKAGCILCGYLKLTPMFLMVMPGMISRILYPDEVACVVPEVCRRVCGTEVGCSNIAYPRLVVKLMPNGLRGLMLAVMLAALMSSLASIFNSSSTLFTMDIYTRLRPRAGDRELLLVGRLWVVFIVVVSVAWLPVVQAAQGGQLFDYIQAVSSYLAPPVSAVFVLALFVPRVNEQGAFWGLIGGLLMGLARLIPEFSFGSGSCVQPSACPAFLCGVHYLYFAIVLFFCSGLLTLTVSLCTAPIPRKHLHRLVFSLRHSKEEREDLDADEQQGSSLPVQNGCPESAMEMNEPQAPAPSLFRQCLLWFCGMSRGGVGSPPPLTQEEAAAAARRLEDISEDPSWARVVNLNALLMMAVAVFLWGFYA
Source text: A full-length cDNA clone expressing human SGLT2 (GenScript Corporation) was subcloned into […] and Not I sites of pEAK15 expression vector. Clones harboring the cDNA inserts were identified by restriction analysis.
Plasmid containing human SGLT2 was linearized with Nsi I and purified by agarose gel electrophoresis. Using Lipofectamine 2000 Transfection Reagent (Invitrogen Corporation), DNA was transfected into HEK293.ETN cells and cultured in Dulbecco's Modified Eagle Medium (DMEM) containing 10% fetal bovine serum (FBS) at 37° C. under 5% CO2 for 24 h. Transfectants were selected in the same growth medium supplemented with puromycin (Invitrogen Corporation) for two weeks. Puromycin-resistant cells were recovered and seeded on a fresh 96-well plate (single cell per well) and cultured in the presence of puromycin until cells became confluent. Puromycin-resistant clones were evaluated for SGLT2 activity in the methyl-α-D-[U-^14C]glucopyranoside uptake assay described below.
(§1) Cells expressing SGLT1 or SGLT2 were seeded on 96-well ScintiPlate scintillating plates (PerkinElmer, Inc.) in DMEM containing 10% FBS (1×10^5 cells per well in 100 μL medium) incubated at 37° C. under 5% CO2 for 48 h prior to the assay. Cells were washed twice with 150 μL of either sodium buffer (137 mM NaCl, 5.4 mM KCl, 2.8 mM CaCl2, 1.2 mM MgCl2, 10 mM tris(hydroxymethyl)aminomethane/N2-hydroxyethylpiperazine-N′-ethanesulfonic acid [Tris/Hepes], pH 7.2) or sodium-free buffer (137 mM N-methyl-glucamine, 5.4 mM KCl, 2.8 mM CaCl2, 1.2 mM MgCl2, 10 mM Tris/Hepes, pH 7.2). Test compound in 50 μL each of sodium or sodium-free buffer containing 40 μCi/L methyl-α-D-[U-^14C]glucopyranoside (Amersham Biosciences/GE Healthcare), either with (symbols in parentheses) or without (symbols without parentheses) 25% human serum, was added per well of a 96-well plate and incubated at 37° C. with shaking for either 2 h (SGLT1 assay) or 1.5 h (SGLT2 assay). Cells were washed twice with 150 μL of wash buffer (137 mM N-methylglucamine, 10 mM Tris/Hepes, pH 7.2) and methyl-α-D-[U-^14C]glucopyranoside uptake was quantitated using a TopCount scintillation counter (PerkinElmer, Inc.). Sodium-dependent glucopyranoside uptake was measured by subtracting the values obtained with sodium-free buffer from those obtained using sodium buffer (average of triplicate determinations).

human SGLT1 = biological target: T2, human SGLT1 (Homo sapiens, UniProt P13866); assay: Methyl-α-D-[U-14C]glucopyranoside uptake assay, COS-7 cells expressing human SGLT1; assay type: cell-based; settings: COS-7 cells expressing human SGLT1, 2 h incubation, without human serum (symbols without parentheses)
T2 construct: Full-length human SGLT1 cDNA on pDream2.1 expression vector was obtained from GenScript Corporation; host or cells: COS-7 cells (American Type Culture Collection)
T2 sequence (P13866 1-664): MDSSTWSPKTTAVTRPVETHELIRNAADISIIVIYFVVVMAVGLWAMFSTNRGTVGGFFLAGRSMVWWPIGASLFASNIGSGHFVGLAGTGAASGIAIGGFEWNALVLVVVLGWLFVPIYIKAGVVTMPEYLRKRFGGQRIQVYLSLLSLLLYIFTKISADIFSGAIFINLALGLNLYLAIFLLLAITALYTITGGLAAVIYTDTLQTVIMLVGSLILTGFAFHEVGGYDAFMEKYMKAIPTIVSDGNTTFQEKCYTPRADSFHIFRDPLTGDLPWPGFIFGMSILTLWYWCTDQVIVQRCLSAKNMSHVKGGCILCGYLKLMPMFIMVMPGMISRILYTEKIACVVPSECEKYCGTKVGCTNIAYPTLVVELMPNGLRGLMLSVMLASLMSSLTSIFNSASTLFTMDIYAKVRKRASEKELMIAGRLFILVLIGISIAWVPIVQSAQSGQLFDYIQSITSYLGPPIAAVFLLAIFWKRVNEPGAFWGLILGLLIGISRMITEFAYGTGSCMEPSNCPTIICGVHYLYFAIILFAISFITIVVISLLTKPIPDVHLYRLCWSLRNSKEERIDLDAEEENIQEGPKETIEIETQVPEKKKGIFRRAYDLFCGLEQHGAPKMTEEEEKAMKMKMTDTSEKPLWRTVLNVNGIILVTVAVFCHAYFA
Procedure: Full-length human SGLT1 cDNA on pDream2.1 expression vector was obtained from GenScript Corporation and propagated in Escherichia coli strain DH5α using Luria-Bertani (LB) medium containing ampicillin. Plasmid DNA was isolated using the QIAGEN Plasmid Midi Kit (QIAGEN Inc.). […] Transfected cells were stored in DMEM containing 10% dimethyl sulfoxide (DMSO) at −80° C.
as §1

Structure (SMILES)	IC50 (human SGLT2) [nM]	IC50 (human SGLT1) [nM]
CCc1ccc(Cc2cc([C@@H]3O[C@H](CO)[C@@H](O)[C@H](O)[C@H]3O)c(COCC(C)O)cc2Cl)cc1 (stereo partly drawn) [Compound M, (2S,3R,4R,5S,6R)-2-(4-chloro-5-(4-ethylbenzyl)-2-((2-hydroxypropoxy)methyl)phenyl)-6-(hydroxymethyl)tetrahydro-2H-pyran-3,4,5-triol]	< 1000	> 10000
C#CCOCc1cc(Cl)c(Cc2ccc(CC)cc2)cc1[C@@H]1O[C@H](CO)[C@@H](O)[C@H](O)[C@H]1O [Compound N, (2S,3R,4R,5S,6R)-2-(4-chloro-5-(4-ethylbenzyl)-2-((prop-2-ynyloxy)methyl)phenyl)-6-(hydroxymethyl)tetrahydro-2H-pyran-3,4,5-triol]	< 1000	> 10000
CCc1ccc(Cc2cc([C@@H]3O[C@H](CO)[C@@H](O)[C@H](O)[C@H]3O)c(COCCO)cc2Cl)cc1 [Compound O, (2S,3R,4R,5S,6R)-2-(4-chloro-5-(4-ethylbenzyl)-2-((2-hydroxyethoxy)methyl)phenyl)-6-(hydroxymethyl)tetrahydro-2H-pyran-3,4,5-triol]	< 1000	1000 to 10000
CCc1ccc(Cc2cc([C@@H]3O[C@H](CO)[C@@H](O)[C@H](O)[C@H]3O)c(COCC(F)F)cc2Cl)cc1 [Compound R, (2S,3R,4R,5S,6R)-2-(4-chloro-2-((2,2-difluoroethoxy)methyl)-5-(4-ethylbenzyl)phenyl)-6-(hydroxymethyl)tetrahydro-2H-pyran-3,4,5-triol]	< 1000	> 10000
CCc1ccc(Cc2cc([C@@H]3O[C@H](CO)[C@@H](O)[C@H](O)[C@H]3O)c(COCCOC)cc2Cl)cc1 [Compound S, (2S,3R,4R,5S,6R)-2-(4-chloro-5-(4-ethylbenzyl)-2-((2-methoxyethoxy)methyl)phenyl)-6-(hydroxymethyl)tetrahydro-2H-pyran-3,4,5-triol]	< 1000	> 10000
CCc1ccc(Cc2cc([C@@H]3O[C@H](CO)[C@@H](O)[C@H](O)[C@H]3O)c(COCC(C)F)cc2Cl)cc1 (stereo partly drawn) [Compound T, (2S,3R,4R,5S,6R)-2-(4-chloro-5-(4-ethylbenzyl)-2-((2-fluoropropoxy)methyl)phenyl)-6-(hydroxymethyl)tetrahydro-2H-pyran-3,4,5-triol]	< 1000	1000 to 10000
CCc1ccc(Cc2cc([C@@H]3O[C@H](CO)[C@@H](O)[C@H](O)[C@H]3O)c(COCC(O)COC)cc2Cl)cc1 (stereo partly drawn) [Compound W, (2S,3R,4R,5S,6R)-2-(4-chloro-5-(4-ethylbenzyl)-2-((2-hydroxy-3-methoxypropoxy)methyl)phenyl)-6-(hydroxymethyl)tetrahydro-2H-pyran-3,4,5-triol]	< 1000	> 10000
